Reference: ChEMBL document CHEMBL5260823, “5-Ene-4-thiazolidinones - An efficient tool in medicinal chemistry” (Eur J Med Chem, 2017)

How the values were obtained:
[1] = target: T1, Peroxisome proliferator-activated receptor alpha (Homo sapiens, UniProt Q07869); assay: Agonist activity against PPAR-alpha (unknown origin)
T1 sequence (Q07869 whole entry): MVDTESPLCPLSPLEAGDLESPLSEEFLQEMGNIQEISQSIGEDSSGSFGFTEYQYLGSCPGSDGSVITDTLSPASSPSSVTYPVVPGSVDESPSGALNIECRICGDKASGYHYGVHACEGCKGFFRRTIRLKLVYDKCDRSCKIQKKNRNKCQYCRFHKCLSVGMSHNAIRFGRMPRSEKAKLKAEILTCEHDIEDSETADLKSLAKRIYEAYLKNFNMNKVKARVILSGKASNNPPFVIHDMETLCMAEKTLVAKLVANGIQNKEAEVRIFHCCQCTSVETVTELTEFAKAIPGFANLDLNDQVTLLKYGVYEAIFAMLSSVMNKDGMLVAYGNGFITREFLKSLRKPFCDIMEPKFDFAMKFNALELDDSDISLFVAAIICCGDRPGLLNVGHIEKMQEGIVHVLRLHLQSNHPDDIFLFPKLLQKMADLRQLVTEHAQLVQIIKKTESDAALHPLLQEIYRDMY

HeLa S3 = assay: Antiproliferative activity against human HeLa S3 cells assessed as reduction in cell proliferation incubated for 4 days by crystal violet based assay; type: functional; conditions: HeLa S3, 96 h
NCI-H460 = assay: Antiproliferative activity against human NCI-H460 cells assessed as reduction in cell proliferation incubated for 4 days by crystal violet based assay; type: functional; conditions: NCI-H460, 96 h
B16-F10 = assay: Antiproliferative activity against mouse B16-F10 cells assessed as reduction in cell proliferation incubated for 4 days by crystal violet based assay; type: functional; conditions: B16-F10, 96 h
MCF7 = assay: Antiproliferative activity against human MCF7 cells assessed as reduction in cell proliferation incubated for 4 days by crystal violet based assay; type: functional; conditions: MCF7, 96 h
[2] = target: Serine/threonine-protein kinase PLK1 (Homo sapiens, UniProt P53350); assay: Inhibition of full-length His-tagged human PLK1 expressed in baculovirus using biotinylated casein as substrate in presence of [gamma-33P]-ATP by scintillation counter analysis
Caco-2 = assay: Antiproliferative activity against human Caco-2 cells assessed as reduction in cell proliferation incubated for 4 days by crystal violet based assay; type: functional; conditions: Caco-2, 96 h
DU-145 = assay: Antiproliferative activity against human DU-145 cells assessed as reduction in cell proliferation incubated for 4 days by crystal violet based assay; type: functional; conditions: DU-145, 96 h
[3] = Inhibition of COX-2 in LPS stimulated mouse J774.A1 cells using arachidonic acid as substrate preincubated for 60 mins followed by substrate addition and measured after 30 mins by EIA analysis; type: cell-based
Plasmodium falciparum = assay: Antimalarial activity against chloroquine sensitive Plasmodium falciparum FCR-3 infected in mouse FM3A cells ssessed as reduction in parasite growth; type: functional, organism-based; conditions: FCR-3, FM3A
Lethal factor = target: T2, Lethal factor (Bacillus anthracis, UniProt P15917); assay: Inhibition of Bacillus anthracis anthrax lethal factor using MAPKKide as substrate incubated for 30 mins by fluorescence plate reader analysis
T2 sequence (P15917 whole entry): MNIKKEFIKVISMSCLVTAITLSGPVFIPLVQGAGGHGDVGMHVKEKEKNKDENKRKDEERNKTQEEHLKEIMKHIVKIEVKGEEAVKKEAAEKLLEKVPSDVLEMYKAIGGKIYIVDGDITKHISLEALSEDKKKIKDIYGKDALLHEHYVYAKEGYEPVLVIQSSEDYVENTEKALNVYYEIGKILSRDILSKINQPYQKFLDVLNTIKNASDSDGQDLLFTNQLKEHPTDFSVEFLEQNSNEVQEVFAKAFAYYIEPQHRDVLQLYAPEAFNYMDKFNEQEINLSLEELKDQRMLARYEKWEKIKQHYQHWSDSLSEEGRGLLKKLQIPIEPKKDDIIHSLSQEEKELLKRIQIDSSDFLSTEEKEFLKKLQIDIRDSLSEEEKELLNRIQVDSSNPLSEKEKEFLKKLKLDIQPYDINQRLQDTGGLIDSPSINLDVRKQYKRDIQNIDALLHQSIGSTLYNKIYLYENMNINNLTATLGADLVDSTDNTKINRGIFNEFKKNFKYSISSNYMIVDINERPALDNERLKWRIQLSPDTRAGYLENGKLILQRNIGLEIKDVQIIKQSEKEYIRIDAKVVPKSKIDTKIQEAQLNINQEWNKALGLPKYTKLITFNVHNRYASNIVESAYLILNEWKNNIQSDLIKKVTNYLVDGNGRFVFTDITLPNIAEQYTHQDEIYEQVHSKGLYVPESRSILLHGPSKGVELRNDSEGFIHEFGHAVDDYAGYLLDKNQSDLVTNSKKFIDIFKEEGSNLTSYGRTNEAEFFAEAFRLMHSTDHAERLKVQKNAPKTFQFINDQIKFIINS

[4] = Inhibition of beta-lactamase P99 (unknown origin) using cephalosporin nitrocefin as substrate preincubated for 10 mins followed by substrate addition by spectrophotometric analysis; design: species or system Bacteria
[5] = target: RNA-directed RNA polymerase (Hepacivirus hominis, UniProt O39930); assay: Inhibition of Hepatitis C virus NS5B polymerase
[6] = target: Dual specificity tyrosine-phosphorylation-regulated kinase 1A (Homo sapiens, UniProt Q13627); assay: Inhibition of recombinant human GST-tagged DYRK1A expressed in Escherichia coli using Woodtide as substrate in presence of [gamma-33P] ATP incubated for 30 mins by scintillation counter analysis

RNA-directed RNA polymerase, sequence (O39930 whole entry): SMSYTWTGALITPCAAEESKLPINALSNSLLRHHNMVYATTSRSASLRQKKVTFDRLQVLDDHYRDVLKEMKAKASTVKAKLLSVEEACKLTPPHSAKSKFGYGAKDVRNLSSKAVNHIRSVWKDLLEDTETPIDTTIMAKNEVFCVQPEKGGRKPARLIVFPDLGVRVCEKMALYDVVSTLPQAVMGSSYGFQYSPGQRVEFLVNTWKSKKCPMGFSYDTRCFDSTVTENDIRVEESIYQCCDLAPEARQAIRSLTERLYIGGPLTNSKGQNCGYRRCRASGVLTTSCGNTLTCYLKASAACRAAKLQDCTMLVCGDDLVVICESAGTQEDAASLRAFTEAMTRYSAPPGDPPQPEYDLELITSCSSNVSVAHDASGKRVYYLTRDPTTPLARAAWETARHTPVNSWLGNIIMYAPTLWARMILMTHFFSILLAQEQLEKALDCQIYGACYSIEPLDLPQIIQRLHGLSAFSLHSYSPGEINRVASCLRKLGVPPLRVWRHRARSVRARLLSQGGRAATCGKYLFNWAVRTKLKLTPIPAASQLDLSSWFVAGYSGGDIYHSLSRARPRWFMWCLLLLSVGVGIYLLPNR
Serine/threonine-protein kinase PLK1, sequence (P53350 whole entry): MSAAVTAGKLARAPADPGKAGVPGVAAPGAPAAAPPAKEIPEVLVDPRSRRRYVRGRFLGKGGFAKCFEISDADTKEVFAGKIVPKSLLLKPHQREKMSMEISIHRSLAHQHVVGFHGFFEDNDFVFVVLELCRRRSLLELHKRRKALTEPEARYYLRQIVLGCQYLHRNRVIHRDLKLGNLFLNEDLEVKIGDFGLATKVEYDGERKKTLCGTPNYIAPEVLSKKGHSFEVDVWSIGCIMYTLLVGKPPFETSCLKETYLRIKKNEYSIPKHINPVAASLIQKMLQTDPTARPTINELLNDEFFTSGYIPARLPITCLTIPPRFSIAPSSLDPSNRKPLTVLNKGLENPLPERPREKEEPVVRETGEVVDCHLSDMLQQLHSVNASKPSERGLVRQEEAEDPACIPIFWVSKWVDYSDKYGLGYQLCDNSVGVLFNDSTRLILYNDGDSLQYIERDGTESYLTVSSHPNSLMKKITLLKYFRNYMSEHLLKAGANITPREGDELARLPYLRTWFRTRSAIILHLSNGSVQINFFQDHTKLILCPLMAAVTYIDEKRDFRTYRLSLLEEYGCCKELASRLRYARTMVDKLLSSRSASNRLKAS

## CN(C)c1ccc(/C=C/C=C2\S/C(=N\c3ccccc3)N(Cc3ccc(C(=O)O)cc3)C2=O)cc1
[1]
  EC50: 0.044 µM

## CCn1c(=O)/c(=C/Nc2cccc(CCN3CCCC3)c2)s/c1=C(\C#N)C(=O)NCC(F)(F)F
HeLa S3
  IC50: 0.2 µM
NCI-H460
  IC50: 0.2 µM
B16-F10
  IC50: 0.2 µM
MCF7
  IC50: 0.2 µM
[2]
  IC50: 0.019 µM
Caco-2
  IC50: 0.2 µM
DU-145
  IC50: 0.2 µM

## CONC1=NC(=O)/C(=C/c2cc(C(C)(C)C)c(O)c(C(C)(C)C)c2)S1
[3]
  IC50: 0.17 µM

## C=CCn1c(=O)/c(=C2\Sc3ccccc3N2C)s/c1=C\c1cccc[n+]1C
Plasmodium falciparum
  EC50: 0.012 µM

## O=C(O)CN1C(=O)/C(=C/c2ccco2)SC1=S
Lethal factor
  IC50: 10 µM

## O=C1NC(=S)S/C1=C1\C(=O)Nc2ccccc21
[4]
  IC50: 2600 µM

## Cc1ccc(S(=O)(=O)NC2=NC(=O)/C(=C/c3ccc(C)o3)S2)cc1
[5]
  IC50: 2 µM

## CCc1ccc(/C=C2/SC(NC(C(=O)O)c3ccc(F)cc3)=NC2=O)o1 (stereo not given)
[5]
  IC50: 3 µM

## COc1ccc(/C=C2\SC(NCCCN3CCN(CCCNC4=NC(=O)/C(=C/c5ccc(OC)cc5)S4)CC3)=NC2=O)cc1
[6]
  IC50: 0.04 µM
